Source: patent US7141590B2, “Pharmaceutical uses and synthesis of nicotinanilide-N-oxides” (UCB SA, priority 2000, dated 2006)

Key:
[1] = molecular target: T1, IL-8 type β receptor (IL-8Rβ) (Homo sapiens, UniProt P25025); experiment: [125I] IL-8 binding assay (WGA-SPA beads, IL-8Rβ membranes); details: 20 uM compound; [125I] IL-8, IL-8Rβ membranes
T1 construct: purchased BioSignal, Montreal, Canada; host or cells: Sf9 cells
T1 sequence (P25025 1-360): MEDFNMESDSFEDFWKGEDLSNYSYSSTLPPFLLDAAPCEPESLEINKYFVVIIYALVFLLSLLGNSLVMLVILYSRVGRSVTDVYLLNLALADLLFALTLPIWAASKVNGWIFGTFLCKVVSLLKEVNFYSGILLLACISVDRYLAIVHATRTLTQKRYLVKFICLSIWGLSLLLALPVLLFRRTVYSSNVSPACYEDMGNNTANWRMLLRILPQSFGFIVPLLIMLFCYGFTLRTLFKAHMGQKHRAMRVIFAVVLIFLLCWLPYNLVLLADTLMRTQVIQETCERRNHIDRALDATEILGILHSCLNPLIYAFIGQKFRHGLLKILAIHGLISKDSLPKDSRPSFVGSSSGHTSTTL
Experimental: IL-8 (human recombinant) was obtained from NEN Life Science Products, Inc., Boston, Mass., with specific activity of 2200 Ci/mmol. Recombinant human IL-8 was obtained from R&D Systems, Minneapolis, Minn. IL-8 type β receptor membranes were prepared from […] co-expressed with Gαi3β1γ2 proteins by BioSignal™, Montreal, Canada. Wheat Germ Agglutinin Scintillation Proximity Assay Beads were obtained from Amersham Pharmacia Biotech, Piscataway, N.J. All assays were performed in a 96-well, solvent resistant, white PicoPlate obtained from Packard Instruments. […] The assay was initiated by the addition of WGA-SPA beads in 25 mM Hepes (pH 7.4) containing 2 mM CaCl2 and 1 mM MgCl2. After 4–6 hours of gentle agitation at room temperature, the plate was counted on the Packard TopCount liquid scintillation counter.

[2] = system: polymorphonuclear neutrophils (PMNs); experiment: GRO-α driven chemotaxis assay with PMNs (ChemoTx plate); assay type: cell-based; details: 20 μM compound; 50 nM GRO-α, human PMNs
Experimental: Peripheral blood from healthy human volunteers was collected into heparin, diluted in an equal volume of PBS, layered over Ficoll-Paque Plus (Pharmacia Biotech, Uppsala, Sweden), and spun at 400×g for 30 min. The PMN rich fraction was removed and residual erythrocytes were lysed with hypotonic saline. The polymorphonuclear neutrophils (PMNs) were washed once with assay buffer (Dulbecco's PBS containing divalent cations and 0.1% endotoxin-free BSA), and resuspended at 1E7 cells/mL in the same buffer. PMNs were loaded with 5 μM calcein AM (Molecular Probes, Eugene, Oreg.), washed twice and resuspended in assay buffer.
Growth Regulatory Oncogene a (GRO-α) driven chemotaxis assays were performed according to the following protocol. […] Test compounds were dissolved in DMSO (100%) at 20 mM and diluted in assay buffer to the desired concentrations; final DMSO concentration was 0.2%. Neutrophil migration proceeded for 40 min at 37° C. in a humidified incubator with 5% CO2. After removing nonmigrated cells from the top of the plate, migrated cells were quantified by reading fluorescence on a Wallac Victor.
The ratio of the positive to negative controls represents the chemotactic index of the cells. The results from this assay are reported in Tables 3–5, under the column headings IL-8 and GRO-α, and under the sub-column headings ChTx (for chemotaxis).

SMILES	IL-8 Binding @ 20 uM, % [1]	GRO-α ChTx @ 20 μM, % [2]
CN(C)c1ccc(C(=O)Nc2ccc(F)cc2)c[n+]1[O-]	* (“*” for % values of less than or equal to 40)	
O=C(Nc1ccc(F)cc1)c1ccc(NCc2ccccc2)[n+]([O-])c1	* (“*” for % values of less than or equal to 40)	* (“*” for % values of less than or equal to 40)
O=C(Nc1ccc(F)cc1)c1ccc(Nc2ccccc2)[n+]([O-])c1	** (“**” for % values greater than 40)	* (“*” for % values of less than or equal to 40)
CNc1ccc(C(=O)Nc2ccc(F)cc2)c[n+]1[O-]	** (“**” for % values greater than 40)	** (“**” for % values greater than 40)
O=C(Nc1ccc(F)cc1)c1ccc(-n2ccnc2)[n+]([O-])c1	* (“*” for % values of less than or equal to 40)	* (“*” for % values of less than or equal to 40)
O=C(Nc1ccc(F)cc1)c1ccc(NCCO)[n+]([O-])c1	* (“*” for % values of less than or equal to 40)	** (“**” for % values greater than 40)
CCCCCNc1ccc(C(=O)Nc2ccc(F)cc2)c[n+]1[O-]	* (“*” for % values of less than or equal to 40)	** (“**” for % values greater than 40)
O=C(Nc1ccc(F)cc1)c1ccc(N2CCCC2)[n+]([O-])c1	* (“*” for % values of less than or equal to 40)	* (“*” for % values of less than or equal to 40)
Nc1ccc(C(=O)Nc2ccc(F)cc2)c[n+]1[O-]	* (“*” for % values of less than or equal to 40)	* (“*” for % values of less than or equal to 40)
COc1ccc(C(=O)Nc2ccc(F)cc2)c[n+]1[O-]	* (“*” for % values of less than or equal to 40)	** (“**” for % values greater than 40)
CSc1ccc(C(=O)Nc2ccc(F)cc2)c[n+]1[O-]	** (“**” for % values greater than 40)	** (“**” for % values greater than 40)
CCSc1ccc(C(=O)Nc2ccc(F)cc2)c[n+]1[O-]	* (“*” for % values of less than or equal to 40)	* (“*” for % values of less than or equal to 40)
CC(C)S(=O)(=O)c1ccc(C(=O)Nc2ccc(F)cc2)c[n+]1[O-]	** (“**” for % values greater than 40)	** (“**” for % values greater than 40)
O=C(O)c1cccc(S(=O)(=O)c2ccc(C(=O)Nc3ccc(F)cc3)c[n+]2[O-])c1	** (“**” for % values greater than 40)	* (“*” for % values of less than or equal to 40)
O=C(O)CCS(=O)(=O)c1ccc(C(=O)Nc2ccc(F)cc2)c[n+]1[O-]	** (“**” for % values greater than 40)	* (“*” for % values of less than or equal to 40)
O=C(Nc1ccc(F)cc1)c1ccc(S(=O)(=O)c2ccc(F)cc2)[n+]([O-])c1	** (“**” for % values greater than 40)	** (“**” for % values greater than 40)
Cc1cccc(S(=O)(=O)c2ccc(C(=O)Nc3ccc(F)cc3)c[n+]2[O-])c1	* (“*” for % values of less than or equal to 40)	** (“**” for % values greater than 40)
Cc1ccc(C(=O)Nc2ccc(F)cc2)c[n+]1[O-]	*(2) (“*” for % values of less than or equal to 40)	* (“*” for % values of less than or equal to 40)
O=C(Nc1cccc(Br)c1)c1ccc(Cl)[n+]([O-])c1	* (“*” for % values of less than or equal to 40)	** (“**” for % values greater than 40)
O=C(Nc1ccc(F)c(C(F)(F)F)c1)c1ccc(Cl)[n+]([O-])c1	* (“*” for % values of less than or equal to 40)	** (“**” for % values greater than 40)
O=C(Nc1cccc(I)c1)c1ccc(Cl)[n+]([O-])c1	* (“*” for % values of less than or equal to 40)	** (“**” for % values greater than 40)

SMILES	IL-8 Binding @ 20 uM, % [1]	GRO-α ChTx @ 20 μM, % [2]
O=C(Nc1ccc(OC(F)(F)F)cc1)c1ccc(Cl)[n+]([O-])c1	* (“*” for % values of less than or equal to 40)	* (“*” for % values of less than or equal to 40)
O=C(Nc1ccc(OCc2ccccc2)cc1)c1ccc(Cl)[n+]([O-])c1	* (“*” for % values of less than or equal to 40)	** (“**” for % values greater than 40)
O=C(Nc1ccc(I)c(Cl)c1)c1ccc(Cl)[n+]([O-])c1	* (“*” for % values of less than or equal to 40)	** (“**” for % values greater than 40)
Cc1cc(NC(=O)c2ccc(Cl)[n+]([O-])c2)ccc1Br	* (“*” for % values of less than or equal to 40)	** (“**” for % values greater than 40)
CC(C)(C)OC(=O)c1cccc(NC(=O)c2ccc(Cl)[n+]([O-])c2)c1		** (“**” for % values greater than 40)
O=C(O)c1cccc(NC(=O)c2ccc(Cl)[n+]([O-])c2)c1		* (“*” for % values of less than or equal to 40)
COc1ccc(C(=O)O)cc1NC(=O)c1ccc(Cl)[n+]([O-])c1		** (“**” for % values greater than 40)
O=C(Nc1cc(F)c(F)c(C(=O)O)c1F)c1ccc(Cl)[n+]([O-])c1		* (“*” for % values of less than or equal to 40)
O=C(Nc1ccc(O)c(C(=O)O)c1)c1ccc(Cl)[n+]([O-])c1		* (“*” for % values of less than or equal to 40)
O=C(Nc1ccc(F)c(F)c1C(=O)O)c1ccc(Cl)[n+]([O-])c1		** (“**” for % values greater than 40)
CCCCc1ccc(NC(=O)c2ccc(Cl)[n+]([O-])c2)cc1		** (“**” for % values greater than 40)
COC(=O)c1ccc(NC(=O)c2ccc(Cl)[n+]([O-])c2)cc1		** (“**” for % values greater than 40)
O=C(Nc1cccc(F)c1F)c1ccc(Cl)[n+]([O-])c1		** (“**” for % values greater than 40)
CSc1ccccc1NC(=O)c1ccc(Cl)[n+]([O-])c1		** (“**” for % values greater than 40)
CSc1ccc(NC(=O)c2ccc(Cl)[n+]([O-])c2)cc1		** (“**” for % values greater than 40)
N#Cc1cccc(NC(=O)c2ccc(Cl)[n+]([O-])c2)c1		** (“**” for % values greater than 40)
COc1cc(NC(=O)c2ccc(Cl)[n+]([O-])c2)cc(OC)c1OC		* (“*” for % values of less than or equal to 40)
O=C(Nc1ccc(F)cc1)c1ccc(Cl)[n+]([O-])c1Cl		** (“**” for % values greater than 40)
Cc1ccc(C(=O)Nc2ccc(F)cc2)c(Cl)[n+]1[O-]		* (“*” for % values of less than or equal to 40)
O=C(Nc1ccc(F)cc1)c1ccc(Br)[n+]([O-])c1 [Br, 6-BROMO-N-(4-FLUORO-PHENYL)-1-OXY-NICOTINAMIDE]		** (“**” for % values greater than 40)
O=C(Nc1ccc(F)cc1)c1cc(Cl)c(Cl)[n+]([O-])c1 [drawing 126]		** (“**” for % values greater than 40)
